Patent US10632081B2, “Intralymphatic delivery of hyaluronan nanoparticle for cancer metastasis” (priority 2015, dated 2020)

Assays:
[1] = Local toxicity assessment (Primary Dermal Irritation Index); assay type: in vivo, BALB/c mice; conditions: sc foot pad
Protocol: Mice were weighted and grouped into (1) vehicle; (2) 0.3 mg Pt/kg oxaliplatin; (3) 1 mg Pt/kg oxaliplatin; (4) 3 mg Pt/kg Oxaliplatin; (5) 0.3 mg Pt/kg PtHC604; (6) 1 mg Pt/kg PtHC604; (7) 3 mg Pt/kg PtHC604, n=6/group. Each animal was treated once weekly for 4 weeks. The skin toxicities in the injection site were measured by erythema and oedema grading (Table 1). The skin toxicities potential was evaluated using Primary Dermal Irritation Index (PDII) by combining erythema and oedema grading, and classified into non-irritant, negligible-irritant, mild irritant, moderate irritant, and severe irritant (Table 2).

[2] = Lymphatic delivery of PtHC604 by subcutaneous injection in normal rats; assay type: in vivo, SD rats; conditions: sc mammary fat pad, 1 mg Pt/kg
Protocol: To evaluate the lymphatic delivery, SD rats were placed under isoflurane anesthesia and injected subcutaneously into the right mammary fat pad with PtHC604, PtHC16001 or oxaliplatin (1 mg Pt/kg). […] Right axillary lymph nodes, sciatic nerves and plasma were harvested and stored at −80° C. until analysis. Platinum concentrations in lymph nodes and sciatic nerves were analyzed by ICP-MS. Platinum concentration in plasma was analyzed by ICP-OES.

B16-F10-luc2 = test: Survival rate and anti-lymphatic metastasis in spontaneous lymphatic metastasis model of B16-F10-luc2; assay type: in vivo, C57BL/6 mice; conditions: for volume of popliteal lymph node (mean±SEM): 3 mg Pt/kg twice a week for 2 weeks
Text: Prior inoculation of the cells, B16-F10-luc2 cells were harvested during the exponential growth period and washed twice with sterile PBS, and then suspended in PBS with 50% Matrigel (BD Biosciences). Respective 3×10^5 B16-F10-luc2 cells were implanted subcutaneously into the right hind foot pad of female C57BL/6 mice (6 to 8 weeks old). B16-F10-luc2 tumors were allowed to grow for 5 weeks, and the tumor cells spontaneously metastasized to regional popliteal lymph node. Lymphatic metastasis was confirmed by bioluminescence imagine using IVIS spectrum. Oxaliplatin was administered by intravenous or subcutaneous injection at the dose of 3 mg Pt/kg, and PtHC604 was administered by subcutaneous injection into the footpad at the same dose of 3 mg Pt/kg. All test articles were administrated twice a week for 2 weeks (n=6-8/group in one independent experiment). Tumor size was measured by calipers and converted into tumor volume using the following formula: V=LS^2/2 (where L is the longest diameter and S is the shortest diameter). Death was defined when mice dead or tumor volumes were >3000 mm^3. At the end of study, mice were sacrificed and the popliteal lymph node was collected for measurement. The volume of lymph node was measured by the same formula above: V=LS^2/2.

[3] = Residual drug in injection site evaluation; conditions: 1 mg Pt/kg
Protocol: After 4, 24, 48, and 96 hours post-injection, animals were euthanized by CO2. Each foot was harvested and stored at −80° C. until analysis. Platinum concentration in each foot was analyzed by ICP-MS.

[4] = Lymphatic delivery of PtHC604 by different injection routes; assay type: in vivo, Sprague Dawley (SD) rats; conditions: iv, 9 mg Pt/kg, right axillary lymph node Pt
Protocol: […] […] […] Right axillary lymph nodes were harvested and stored at −80° C. until analysis. Platinum concentration in lymph nodes was analyzed by ICP-MS (THERMO XSERIES II).

B16-F10-luc2 cells = test: In vitro cytotoxicity assay (MTT); assay type: cell-based, Murine; conditions: 48 h treatment
Protocol: B16-F10-luc2 cells were cultured in RPMI1640 medium supplemented with 10% heat-inactivated fetal bovine serum and maintained in a humidified 37° C., 5% CO2 incubator. B16-F10-luc2 cells were seeded on 96-well plate for 2×10^3 cells per well and incubated overnight at 37° C. Cells were treated with phosphate-buffered saline (PBS), oxaliplatin, or PtHC604 for 48 hours at 37° C. Cell viability was determined by MTT assay.

SAS-LN = test: Anti-lymphatic metastasis in spontaneous lymphatic metastasis model of SAS-LN; assay type: in vivo, BALB/c nude mice; conditions: iv, 3 mg Pt/kg, qw for 5 weeks, cervical lymph nodes by IVIS
Protocol: SAS-LN cells transfected with luciferase were suspended in PBS and were orthotropic implanted (2×10^5 cells per mouse) into the tongue of female BALB/c nude mice (6 to 8 weeks old). SAS-LN tumors were allowed to grow for 1 week. Cisplatin was administered by intravenous injection at dose of 3 mg Pt/kg, and CPHC008 was administered by subcutaneous injection into the buccal site at dose of 3 mg Pt/kg (n=10/group). All test articles were administrated once a week for 5 weeks. After sacrifice, cervical lymph nodes were collected to evaluate metastasis by bioluminescence imagine using IVIS.

[5] = 0.3 mg Pt/kg once weekly for 4 weeks
[6] = 1 mg Pt/kg once weekly for 4 weeks
[7] = 3 mg Pt/kg once weekly for 4 weeks

| Compound | Classification of dermal irritation [1, 5] | Dermal irritation index [1, 5] | Classification of dermal irritation [1, 6] | Dermal irritation index [1, 6] | Classification of dermal irritation [1, 7] | Dermal irritation index [1, 7] | Classification of dermal irritation ([1]; 3 mg Pt/kg once weekly for 4 weeks, listed as oxaliplatin) | AUC (96 h) (h * ug/g) Lymph node ([2]; axillary lymph node Pt) [µg·h/g] | AUC (96 h) (h * ug/g) Plasma ([2]; plasma Pt) [µg·h/g] | AUC (96 h) (h * ug/g) Sciatic nerve ([2]; sciatic nerve Pt) [µg·h/g] | volume of popliteal lymph node (mean±SEM) (B16-F10-luc2; intravenous injection) [mm^3] | Median survival days (B16-F10-luc2; iv, 3 mg Pt/kg, biw, mice bearing metastatic melanoma) [days] | volume of popliteal lymph node (mean±SEM) (B16-F10-luc2; subcutaneous injection) [mm^3] | residual Pt detected in the foot ([3]; 24 hour after sc footpad injection) [%] | Pt exposure in the foot ([3]; sc footpad injection, up to 96 hours) [µg·h/mL] | Lymphatic AUC0-96 h [4] [µg·h/g] | IC50 (B16-F10-luc2 cells) [nM] | Lymphatic metastasis (metastatic ratio) (SAS-LN) [%] | Lymphatic metastasis (metastatic ratio) (SAS-LN; listed as cisplatin) [%] |
| --- | --- | --- | --- | --- | --- | --- | --- | --- | --- | --- | --- | --- | --- | --- | --- | --- | --- | --- | --- |
| O=C1[O][Pt]2([NH][C@@H]3CCCC[C@H]3[NH]2)[O]C1=O [Oxaliplatin, oxaliplatin] | Non-irritation | 0 | Mild irritation | 0.5 | Severe irritation | 4.8 | Severe skin toxicities | 66.0 | 6.7 | 12.0 | 72.7±46.2 | 7 | 129.2±103.9 | 29 | 4089 | 468.7 | 650 | – | – |
| N.N.[Cl][Pt][Cl] [Cisplatin] | – | – | – | – | – | – | – | – | – | – | – | – | – | – | – | – | – | 78 | 78 |
